According to US6025387A, “Gastroprotective flavone/flavanone compounds with therapeutic effect on inflammatory bowel disease” (Dong a Pharmaceutical Co., Ltd., priority 1996, dated 2000):
Values after ≈ are worked out from the molar mass of the structure shown. Values belong to the compound of their own block, whether it stands above or below them.

Columns and labels:
experimental ulceration = settings: various kinds of ulcerogens; cited from earlier work
gastric mucus secretion = experiment: Measurement of gastric mucus; format: in vivo, SD male rat; settings: oral, rat
Experimental: Measurement of Gastric Mucus
The compound was orally administered into SD male rat (200~250 g). After 1 hour the stomach was extracted. The extracted stomach was immediately washed with 10 mL of cold 0.25M sucrose solution. The gastric mucosa was dyed with 0.1% alcian blue solution for 2 hours. After dyeing, the gastric mucosa was washed with 0.25M sucrose solution twice for 15 minutes and for 45 minutes. The dyed gastric mucosa was treated with 10 mL of 30% dioctyl sodium sulfosuccinate solution for 2 hours to extract dyed mucus completely and optical density of aqueous phase was measured spectrophotometrically at 655 nm. The amount of mucus in the gastric mucosa was shown as the amount of alcian blue after calibration (Kitagawa, H., et al., Drug Res. 1986, 36: 1240-1244).

[1] = system: gastric mucosal damage induced by ethanolic HCl; experiment: Gastritis model induced with ethanolic-HCl; format: in vivo, SD male rat; settings: po, 1 h, rat; for inhibition in vivo at 0.3 mg/kg: 0.3 mg/kg p.o.; for inhibition in vivo at 1 mg/kg: 1 mg/kg p.o.; for inhibition in vivo at 3 mg/kg: 3 mg/kg p.o.
Experimental: Effect on the Gastritis Model Induced with Ethanolic-HCl.
SD male rat(250-350 g) was fasted for 24 hours. The compound was orally administered in suspension of 5% HPMC, and after 1 hour 1.5 mL of 150 mM HCl-80% ethanol was orally administered. After 1 hour the rat was sacrifieced and the stomach was extracted and the ulcer index was measured. The ulcer index was shown by the area of hemorrhage lesion(Mizui, T, et al., Jpn. J. Pharmacol. 1983, 33: 939).

cyclooxygenase [2] = experiment: Cyclooxygenase activity in HUVEC (PGF1 α synthesis); format: cell-based
Experimental: (§1) Measurment of Cyclooxygenase Actvity
(§2) After addition of the compound to cultured HUVEC, the HUVEC was incubated at 37° C., for 30 minutes, then arachidonic acid (final concentration: 30 .rho.M) was added, and the HUVEC was additionally incubated at 37° C. for 15 minutes. The culture medium was taken, and the activity of cyclooxygenase for 6-Keto-PGF1 α or PGE2 was measured by radioimmunoassay (Mitchell, J. A., et al., Pro. Natl. Acad. Sci. USA 1994, 90: 11693-11697).
**SC200 (ug/mL) : Concentration at increasing generation of […]

5-lipoxygenase = target: T1, 5-lipoxygenase (Rattus norvegicus, UniProt P12527); experiment: 5-lipoxygenase activity (LTB4 in A23187-stimulated peritoneal neutrophils); format: cell-based
T1 construct: endogenous in cells; host or cells: casein-elicited rat peritoneal neutrophils
T1 sequence (P12527 1-673): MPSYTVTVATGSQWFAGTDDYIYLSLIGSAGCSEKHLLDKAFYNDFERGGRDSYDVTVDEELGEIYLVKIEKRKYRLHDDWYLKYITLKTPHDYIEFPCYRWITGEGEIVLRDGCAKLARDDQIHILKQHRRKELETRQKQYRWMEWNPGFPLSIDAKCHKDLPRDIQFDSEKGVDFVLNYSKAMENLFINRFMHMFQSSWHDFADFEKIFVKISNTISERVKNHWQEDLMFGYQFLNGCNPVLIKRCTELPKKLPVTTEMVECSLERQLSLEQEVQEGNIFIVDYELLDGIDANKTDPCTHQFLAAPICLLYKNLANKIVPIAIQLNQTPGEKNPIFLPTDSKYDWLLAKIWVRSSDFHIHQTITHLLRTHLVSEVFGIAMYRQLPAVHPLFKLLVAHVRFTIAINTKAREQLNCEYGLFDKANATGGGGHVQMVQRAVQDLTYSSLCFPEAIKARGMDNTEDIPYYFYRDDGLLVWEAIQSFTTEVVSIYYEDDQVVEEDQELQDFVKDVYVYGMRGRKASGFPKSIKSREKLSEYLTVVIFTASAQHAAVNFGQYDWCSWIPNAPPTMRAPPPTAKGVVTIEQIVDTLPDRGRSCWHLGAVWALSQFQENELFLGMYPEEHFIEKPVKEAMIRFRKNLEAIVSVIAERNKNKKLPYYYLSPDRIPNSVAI
Experimental: Measurement of 5-lipooxygenase Activity
Modified Safayhi et al.'s method (Safayhi, H., et al., Biochem. Pharmacol. 1985, 34: 2691) was used to this experiment. Peritoneal neutrophil was separated from the rat which was treated with casein solution. The compound was added to 10^7 cells (5×10^6 cells/mL, 2 mL) of neutrophil after 2 minutes Ca^2+ -ionophore, A23187 (1 μg/mL) was added and the mixture was incubared at 37° C. for 10 minutes. The reaction mixture was centrifuged and the supermatant was taken up. The amount of LTB4 in the supermatant was measured by radioimmunoassay.

cyclooxygenase [3] = experiment: Cyclooxygenase activity in HUVEC (PGE2 synthesis); format: cell-based
Experimental: as §1, §2
**SC200 (μg/mL) : Concentration at increasing generation of […]

neutrophils = experiment: Luminol-dependent chemiluminescence of neutrophils induced by FMLP; format: cell-based; settings: Neutrophil, 1 μM FMLP, 0.07 mM luminol; read-out: IC50, inhibition of chemiluminescence generated by neutrophil activation
Experimental: Measurement of luminol-dependent chemiluminescencei iof neutrophil induced by FMLP.
20 mL of 12% sodium caseinate-0.9% saline was administered intraperitoneally (Newsby, A. C., Biochem. J., 1980, 186: 907,. After 20 hours, the intraperitoneal exudate was extracted under ether anesthesia. The exudate was centrifuged, and erythrocytes were removed by hypotonic lysis, and then neutrophil was washed. Neutrophil was ascertained by Wright's dyeing method, and viability was measured by Trypan blue exclusion test. Chemiluminescence was measured by Topcount (Packard Co.). The suspension of 1.5×10^6 of granulocytes, 1 μM of FMLP, 0.07 mM of luminol and the compound in HBSS was used (Dahlgren, C., et al., Infect. Immun., 1985 47: 326-328).
**IC50 (μg/mL): Concentration of the compound at inhibiting
chemiluminescence generated by neutrophil activation to 50%

gastric mucosa = settings: U.S. Pat. No. 5,399,584; cited from earlier work
leukocytes = settings: cited from earlier work
[4] = system: gastric mucosal damage induced by NSAIDs; settings: NSAID-induced; cited from earlier work
[5] = system: gastritis and gastric ulcer; settings: in vivo; cited from earlier work
[6] = system: gastric ulcer induced by NSAIDs; settings: clinical; cited from earlier work
[7] = system: epidermal cells of mucous membrane in gastrointestinal tracts; settings: cited from earlier work

Compound: CCCCC[C@H](O)/C=C/[C@H]1[C@H](O)CC(=O)[C@@H]1C/C=C\CCCC(=O)O [PGE2]
prevention of experimental ulceration (experimental ulceration): effectively prevent the experimental ulceration

Compound: COc1ccc(-c2cc(=O)c3c(OC)c(OC)c(OCC(=O)O)cc3o2)cc1OC [7-carboxymethyloxy-3',4',5,6-tetramethoxy flavone]
gastric mucus secretion, % Control (gastric mucus secretion; 0.3 mg/kg): 120 % Control | gastric mucus secretion, % Control (gastric mucus secretion; 3 mg/kg): 130 % Control | gastric mucus secretion, % Control (gastric mucus secretion; 30 mg/kg): 139 % Control | inhibition in vivo at 0.3 mg/kg [1]: 54% | inhibition in vivo at 1 mg/kg [1]: 77% | inhibition in vivo at 3 mg/kg [1]: 84% | SC200, concentration increasing generation of PGF1α to 200% (cyclooxygenase [2]): 11.09 µg/mL | IC50 (5-lipoxygenase): 140 µM | SC200, concentration increasing generation of PGE2 to 200% (cyclooxygenase [3]): 15.76 µg/mL | IC50 (neutrophils): 1.57 µg/mL (≈ 3.77 µM)

Compound: COc1cccc2oc(-c3ccc(F)cc3)cc(=O)c12 [4'-fluoro-5-methoxy flavone]
protective effect on damage of gastric mucosa (gastric mucosa): protective effect on the damage of gastric mucosa

IC50 (5-lipoxygenase): 13.1 µM | IC50 (neutrophils): 0.463 µg/mL (≈ 1.34 µM)
Compound: COc1ccc(-c2cc(=O)c3c(O)c(OC)c(O)cc3o2)cc1OC [5,7-dihydroxy-3',4',6-trimethoxy flavone]
gastric mucus secretion, % Control (gastric mucus secretion; 0.3 mg/kg): 132.2 % Control | gastric mucus secretion, % Control (gastric mucus secretion; 3 mg/kg): 130.7 % Control | gastric mucus secretion, % Control (gastric mucus secretion; 30 mg/kg): 116.8 % Control | inhibition in vivo at 0.3 mg/kg [1]: 58% | inhibition in vivo at 1 mg/kg [1]: 64% | inhibition in vivo at 3 mg/kg [1]: 80% | SC200, concentration increasing generation of PGF1α to 200% (cyclooxygenase [2]): 3.4 µg/mL | SC200, concentration increasing generation of PGE2 to 200% (cyclooxygenase [3]): 2.4 µg/mL

Compound: COc1ccc2c(c1)c(CC(=O)O)c(C)n2C(=O)c1ccc(Cl)cc1 [indomethacin]
leukocyte adherence to vascular endothelium (leukocytes): induce adherence of leukocytes to the vascular endothelium

Compound: catalase
reduction of gastric mucosal damage [4]: significantly reduce the extent of gastric mucosal damage induced by NSAIDs

Compound: sucralfate
frequency of recurrence [5]: low frequency of recurrence

Compound: CCCCC(C)(O)C/C=C/[C@H]1[C@H](O)CC(=O)[C@@H]1CCCCCCC(=O)OC (mixture of isomers) [misoprostol]
prevention of NSAID-induced gastric ulcer [6]: prevented the gastric ulcer induced by NSAIDs

Compound: COc1ccc2[nH]c([S+]([O-])Cc3ncc(C)c(OC)c3C)nc2c1 (stereo not drawn) [omeprazole]
effect of long-term administration to rats [7]: caused dysplasia in epidermal cells of mucous membrane in gastrointestinal tracts
